From publication PMC12649549, “Sequence Permutation Generated Lysine and Tryptophan-Rich Antimicrobial Peptides with Enhanced Therapeutic Index” (Antibiotics, 2025)
Where two headings read alike, the source gives them in different places.

Tests used:
[1] = test system: S. aureus ATCC 33591
Method in brief: (§1)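 Broth microdilution per CLSI in Müller-Hinton broth and modified LYM broth (pH 7.4; variants with 300–50 mM NaCl, 2.5–0.5 mM MgCl2, or pH 6.5–4.5). Inoculum 5 × 10^5 CFU/mL; peptides at final 50 to 0.78 µg/mL, twofold series. MIC reported; three independent repeats.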

[2] = test system: Pseudomonas aeruginosa Migula (ATCC 27853)
Method in brief: as §1

[3] = test system: S. aureus ATCC 6538
Method in brief: as §1

[4] = test system: A. baumannii 14B00100 (Acinetobacter sp., BCRC number 14B0100)
Method in brief: as §1

[5] = test system: A. baumannii 14B0097 (Acinetobacter sp., BCRC number 14B0097)
Method in brief: as §1

[6] = test system: A. baumannii 14B0091 (Acinetobacter sp., BCRC number 14B0091)
Method in brief: as §1

[7] = test system: S. aureus ATCC 25923
Method in brief: as §1

[8] = LYM broth, 0 mM NaCl, 16 h, 37 °C
[9] = LYM broth, 50 mM NaCl, 16 h, 37 °C
[10] = LYM broth, 100 mM NaCl, 16 h, 37 °C
[11] = LYM broth, 200 mM (NaCl), 16 h, 37 °C
[12] = LYM broth, 300 mM (NaCl), 16 h, 37 °C
[13] = MH broth, 5 × 10^5 CFU/mL, 16 h, 37 °C, repeated three times

Measured: MIC

Ac-AKKKKWRKWLKWL-NH2 [Peptide W5K10]
12.5 µg/mL: [1]; [11] | [1]; [13] | [2]; [11] | [3]; [12] | [7]; [11]
3.13 µg/mL: [1]; [8] | [1]; LYM broth, 0.5 mM MgCl2 | [1]; LYM broth, 1.5 mM MgCl2 | [1]; LYM broth, pH 5.5 | [1]; LYM broth, pH 6.5 | [2]; [8] | [2]; LYM broth, 0.5 mM MgCl2 | [2]; LYM broth, 1.5 mM MgCl2 | [2]; LYM broth, pH 4.5 | [2]; LYM broth, pH 5.5 | [3]; [10] | [3]; LYM broth, pH 5.5 | [4]; LYM broth, 2.5 mM MgCl2 | [4]; [12] | [4]; [13] | [5]; LYM broth, 2.5 mM MgCl2 | [5]; LYM broth, pH 4.5 | [6]; LYM broth, 2.5 mM MgCl2 | [6]; [12] | [6]; LYM broth, pH 4.5 | [7]; [8] | [7]; LYM broth, 1.5 mM MgCl2 | [7]; LYM broth, 2.5 mM MgCl2 | [7]; [9] | [7]; LYM broth, pH 4.5 | [7]; LYM broth, pH 5.5 | [7]; LYM broth, pH 6.5
1.56 µg/mL: [2]; LYM broth, pH 6.5 | [3]; [8] | [3]; LYM broth, 0.5 mM MgCl2 | [3]; LYM broth, 1.5 mM MgCl2 | [3]; LYM broth, 2.5 mM MgCl2 | [3]; [9] | [3]; LYM broth, pH 6.5 | [4]; [8] | [4]; LYM broth, 0.5 mM MgCl2 | [4]; LYM broth, 1.5 mM MgCl2 | [4]; [9] | [4]; [10] | [4]; [11] | [4]; LYM broth, pH 4.5 | [4]; LYM broth, pH 5.5 | [4]; LYM broth, pH 6.5 | [5]; [8] | [5]; LYM broth, 0.5 mM MgCl2 | [5]; LYM broth, 1.5 mM MgCl2 | [5]; [9] | [5]; [10] | [5]; [11] | [5]; LYM broth, pH 5.5 | [5]; LYM broth, pH 6.5 | [5]; [13] | [6]; [8] | [6]; LYM broth, 0.5 mM MgCl2 | [6]; LYM broth, 1.5 mM MgCl2 | [6]; [9] | [6]; [10] | [6]; [11] | [6]; LYM broth, pH 5.5 | [6]; LYM broth, pH 6.5 | [6]; [13] | [7]; LYM broth, 0.5 mM MgCl2
25 µg/mL: [1]; [12] | [2]; [12] | [7]; [12]
6.25 µg/mL: [1]; LYM broth, 2.5 mM MgCl2 | [1]; [9] | [1]; [10] | [1]; LYM broth, pH 4.5 | [2]; LYM broth, 2.5 mM MgCl2 | [2]; [9] | [2]; [10] | [2]; [13] | [3]; [11] | [3]; LYM broth, pH 4.5 | [3]; [13] | [5]; [12] | [7]; [10] | [7]; [13]

Ac-KKKKWRKWLKWLA-NH2 [Peptide W5K11]
0.78 µg/mL: [4]; [8] | [4]; [9] | [4]; [10] | [4]; [11] | [4]; [12] | [6]; [13]
12.5 µg/mL: [1]; [13]
6.25 µg/mL: [1]; [11] | [1]; [12] | [2]; [12] | [3]; [12] | [7]; [12]
3.13 µg/mL: [1]; [8] | [1]; LYM broth, 0.5 mM MgCl2 | [1]; LYM broth, 1.5 mM MgCl2 | [1]; LYM broth, 2.5 mM MgCl2 | [1]; [9] | [1]; [10] | [1]; LYM broth, pH 4.5 | [1]; LYM broth, pH 5.5 | [1]; LYM broth, pH 6.5 | [2]; LYM broth, 2.5 mM MgCl2 | [2]; [11] | [2]; [13] | [3]; [10] | [3]; [11] | [3]; LYM broth, pH 4.5 | [3]; [13] | [7]; [10] | [7]; [11] | [7]; LYM broth, pH 4.5 | [7]; [13]
1.56 µg/mL: [2]; [8] | [2]; LYM broth, 0.5 mM MgCl2 | [2]; LYM broth, 1.5 mM MgCl2 | [2]; [9] | [2]; [10] | [2]; LYM broth, pH 4.5 | [2]; LYM broth, pH 5.5 | [2]; LYM broth, pH 6.5 | [3]; [8] | [3]; LYM broth, 0.5 mM MgCl2 | [3]; LYM broth, 1.5 mM MgCl2 | [3]; LYM broth, 2.5 mM MgCl2 | [3]; [9] | [3]; LYM broth, pH 5.5 | [3]; LYM broth, pH 6.5 | [4]; LYM broth, 0.5 mM MgCl2 | [4]; LYM broth, 1.5 mM MgCl2 | [4]; LYM broth, 2.5 mM MgCl2 | [4]; LYM broth, pH 4.5 | [4]; LYM broth, pH 5.5 | [4]; LYM broth, pH 6.5 | [4]; [13] | [5]; [8] | [5]; LYM broth, 0.5 mM MgCl2 | [5]; LYM broth, 1.5 mM MgCl2 | [5]; LYM broth, 2.5 mM MgCl2 | [5]; [9] | [5]; [10] | [5]; [11] | [5]; [12] | [5]; LYM broth, pH 4.5 | [5]; LYM broth, pH 5.5 | [5]; LYM broth, pH 6.5 | [5]; [13] | [6]; [8] | [6]; LYM broth, 0.5 mM MgCl2 | [6]; LYM broth, 1.5 mM MgCl2 | [6]; LYM broth, 2.5 mM MgCl2 | [6]; [9] | [6]; [10] | [6]; [11] | [6]; [12] | [6]; LYM broth, pH 4.5 | [6]; LYM broth, pH 5.5 | [6]; LYM broth, pH 6.5 | [7]; [8] | [7]; LYM broth, 0.5 mM MgCl2 | [7]; LYM broth, 1.5 mM MgCl2 | [7]; LYM broth, 2.5 mM MgCl2 | [7]; [9] | [7]; LYM broth, pH 5.5 | [7]; LYM broth, pH 6.5

Ac-KKKWRKWLKWLAK-NH2 [Peptide W5K12]
1.56 µg/mL: [2]; [8] | [2]; LYM broth, 0.5 mM MgCl2 | [2]; LYM broth, 1.5 mM MgCl2 | [2]; [9] | [2]; LYM broth, pH 4.5 | [2]; LYM broth, pH 5.5 | [2]; LYM broth, pH 6.5 | [3]; [8] | [3]; LYM broth, 0.5 mM MgCl2 | [3]; LYM broth, 1.5 mM MgCl2 | [3]; LYM broth, 2.5 mM MgCl2 | [3]; [9] | [3]; LYM broth, pH 5.5 | [3]; LYM broth, pH 6.5 | [4]; [8] | [4]; LYM broth, 0.5 mM MgCl2 | [4]; LYM broth, 1.5 mM MgCl2 | [4]; [9] | [4]; [10] | [4]; [11] | [4]; [12] | [4]; LYM broth, pH 6.5 | [5]; [8] | [5]; LYM broth, 0.5 mM MgCl2 | [5]; LYM broth, 1.5 mM MgCl2 | [5]; [9] | [5]; [10] | [5]; [11] | [5]; LYM broth, pH 6.5 | [5]; [13] | [6]; [8] | [6]; LYM broth, 0.5 mM MgCl2 | [6]; LYM broth, 1.5 mM MgCl2 | [6]; LYM broth, 2.5 mM MgCl2 | [6]; [9] | [6]; [10] | [6]; [11] | [6]; LYM broth, pH 6.5 | [6]; [13] | [7]; [8] | [7]; LYM broth, 0.5 mM MgCl2 | [7]; LYM broth, pH 6.5
3.13 µg/mL: [1]; [8] | [1]; LYM broth, 0.5 mM MgCl2 | [1]; LYM broth, 1.5 mM MgCl2 | [1]; LYM broth, 2.5 mM MgCl2 | [1]; [9] | [1]; [10] | [1]; LYM broth, pH 4.5 | [1]; LYM broth, pH 5.5 | [1]; LYM broth, pH 6.5 | [2]; LYM broth, 2.5 mM MgCl2 | [2]; [10] | [2]; [13] | [3]; [10] | [3]; LYM broth, pH 4.5 | [3]; [13] | [4]; LYM broth, 2.5 mM MgCl2 | [4]; LYM broth, pH 4.5 | [4]; LYM broth, pH 5.5 | [4]; [13] | [5]; LYM broth, 2.5 mM MgCl2 | [5]; [12] | [5]; LYM broth, pH 4.5 | [5]; LYM broth, pH 5.5 | [6]; [12] | [6]; LYM broth, pH 4.5 | [6]; LYM broth, pH 5.5 | [7]; LYM broth, 1.5 mM MgCl2 | [7]; LYM broth, 2.5 mM MgCl2 | [7]; [9] | [7]; [10] | [7]; LYM broth, pH 4.5 | [7]; LYM broth, pH 5.5 | [7]; [13]
6.25 µg/mL: [1]; [11] | [1]; [13] | [2]; [11] | [3]; [11] | [7]; [11]
12.5 µg/mL: [1]; [12] | [2]; [12] | [3]; [12] | [7]; [12]
